We go through one compound from patent US12275734B1, “Pleuromutilin onium salt derivative containing a 3H-imidazo[4,5-c]pyridine side chain, and a preparation method and application thereof” (SHAANXI UNIVERSITY OF SCIENCE AND TECHNOLOGY, priority 2024, dated 2025).

In assay [1] the test system is MRSA (ATCC 33591). Kind of assay: Intracellular and extracellular ATP concentration. The class given is cell-based, S. aureus. As for the experimental part: The intracellular and extracellular ATP levels refer to the concentration of ATP inside and outside the cell. Under normal physiological conditions, ATP is mainly produced inside the cell and released outside the cell when needed. This dynamic change is very important for maintaining normal biological homeostasis.
Determine the intracellular ATP concentration using the ATP assay kit:
Secondly, the bacterial suspension was treated with different concentrations of compound i, and a blank control group was set up. Next, the samples were incubated at 37° C. and the cells were lysed by ultrasound to extract ATP. After that, the supernatant was collected by high-speed centrifugation and ATP detection was performed, which involved adding the detection solution and compound to a 96-well plate and using a reader to measure the light intensity. Finally, data analysis and statistics were performed to evaluate the effects of the compound by comparing the ATP levels of different treatment groups.

The subject of assay [2] is E. coli (ATCC 25922). The experiment in a line: Bacterial extracellular conductivity. The assay is classed as cell-based. The note with it: 1×MIC and 2×MIC, vs blank control. The source says: Changes in conductivity can reflect the permeability and integrity of the cell membrane. When the cell membrane is damaged or the permeability increases, the flow of ions inside and outside the cell will increase, resulting in an increase in conductivity. In the fields of biology and cell biology, conductivity measurements are often used to assess changes in cell membrane integrity.
MRSA and E. coli cells in the logarithmic growth phase were first resuspended after high-speed centrifugation and repeated PBS buffer washing and adjusted to the appropriate optical density. Next, different concentrations of compound i (1×MIC and 2×MIC) were added to the cell suspension, and a blank control group was set. All samples were incubated at 37° C. and sampled at set time points (0, 1, 2, 4, 6, and 8 hours). […] This series of operations helps to reveal the specific mechanism of action of compound i on bacterial growth and cell structure.

For assay [3], the system named is MRSA (ATCC 33591). The experiment in a line: Biofilm formation, crystal violet staining. The assay is classed as cell-based, S. aureus. As for the experimental part:
(§1) Quantification of biofilm using crystal violet staining:
(§2) MRSA and E. coli cells were first adjusted to the logarithmic growth phase and diluted to […]. […] A blank control group without compound addition was set up. After incubation, the suspension was discarded and washed three times with 10 mM PBS buffer, and the biofilm was fixed with methanol for 15 minutes. After removing the methanol, 200 μL of 0.1% crystal violet was added to each well for staining for 30 minutes, and then the crystal violet was discarded and washed again with PBS three times. After the well plate was dried, 200 μL of 95% ethanol was added to each well to dissolve the fixed dye. […] This process allows for quantitative analysis of the ability of different concentrations of compound i to form biofilms.

In assay [4] the test system is E. coli (ATCC 25922). The experiment in a line: Biofilm formation, crystal violet staining. The assay is classed as cell-based. As for the experimental part:
as §1, §2

The subject of assay [5] is MRSA (ATCC 33591). The experiment in a line: Cell membrane integrity, propidium iodide staining. The assay is classed as cell-based, S. aureus. As for the experimental part:
The steps for dead cell staining using propidium iodide are as follows:
At the beginning of the experiment, samples were taken from MRSA and E. coli in the logarithmic growth phase, centrifuged at 8000 rpm for 5 minutes and washed twice with 0.85% NaCl solution to remove the culture medium and other possible interfering substances. Afterwards, the bacteria were resuspended in 0.85% NaCl solution and the concentration was adjusted to approximately 1×10^8 CFU/mL.
[…] After incubation, in order to mark and distinguish dead cells, 15 μM propidium iodide solution was added to each sample and incubated in the dark for 15 minutes. PI is a fluorescent dye that binds to DNA and can only penetrate into dead cells with damaged cell membranes.
Finally, the samples were observed using a fluorescence microscope or a confocal laser scanning microscope. By setting the appropriate fluorescence channel (excitation wavelength 535 nm, emission wavelength 617 nm), the red fluorescence emitted by dead cells can be detected. In this way, the effect of compound i on the lethality of bacterial cells can be intuitively evaluated and recorded, providing an experimental basis for further drug research.

Assay [6] deals with E. coli (ATCC 25922). Kind of assay: Bacterial cell morphology by FESEM. The assay is classed as cell-based. The following applies: 4 hours. The method, then: Observation of bacterial cell morphology using FESEM:
First, the bacterial suspension was adjusted to OD600=0.5, and then the bacteria were treated with compound i at a final concentration of 1×MIC and 4×MIC at 37° C. for 4 hours, and a control group without compound addition was set up. After treatment, the bacteria were collected by high-speed centrifugation at 6000 rpm for 10 minutes and washed three times with 10 mM PBS buffer to remove residual culture medium and drugs. Subsequently, the bacteria were fixed with 2.5% glutaraldehyde at 4° C. for 12 hours to maintain the integrity of the cell structure, and then washed again with PBS buffer three times to remove excess glutaraldehyde.
Next, the cells were subjected to a series of ethanol dehydration treatments (30%, 50%, 70%, 80%, 90% and 100% ethanol), and the treatment time of each concentration was sufficient to replace the intracellular water. After dehydration, the sample was resuspended in isoamyl acetate for 30 minutes and then centrifuged at 6000 rpm for 10 minutes to remove the supernatant. The sample was then dried and dotted on a stage with conductive glue, gold-plated to enhance the conductivity of the sample, and finally observed using a field emission scanning electron microscope (FESEM) to obtain high-resolution images of bacterial cell morphology and surface morphology. […]

For assay [7], the system named is E. coli (ATCC 25922). Kind of assay: Cell membrane potential, DiBAC4 (3) probe. The note with it: 1×MIC to 8×MIC, vs blank control.

With `C=C[C@]1(C)C[C@@H](OC(=O)CSc2nc3cc[n+](Cc4ccc(C)cc4)cc3[nH]2)[C@]2(C)[C@H](C)CC[C@]3(CCC(=O)[C@H]32)[C@@H](C)[C@@H]1O` [Compound i, 5-(4-methylbenzyl)-2-((2-(((3aR,4R,5R,7S,8S,9R,9aS,12R)-8-hydroxy-4,7,9,12-tetramethyl-3-oxo-7-vinyldecahydro-4,9a-propancyclopenta[8]cyclo-5-yl)oxy)-2-oxoethyl)thio)-3H-imidazo[4,5-C]pyridine-5-ium], the “extracellular fluorescence intensity (ATP) increased by” value in assay [1] (1×MIC) is on record as 3.27 times; in assay [1] (2×MIC), 2.28 times. The entries for the “intracellular fluorescence intensity (ATP) decreased by” value in assay [1] (1×MIC) and in assay [1] (2×MIC) were 51.92% and 74.76%, respectively. Also, in assay [2], the extracellular conductivity entry was “increased”. For the same compound, the “inhibition rate of biofilm formation” value was 51.33% in assay [3] (1×MIC), 86.68% in assay [3] (8×MIC), 60.47% in assay [4] (1×MIC) and 94.54% in assay [4] (8×MIC). Further, the “cell membrane integrity, propidium iodide red fluorescence” value is given as “obvious red fluorescence was observed” in assay [5] (1×MIC) and “red fluorescence was significantly enhanced” in assay [5] (2×MIC). The “bacterial cell morphology (FESEM)” value is “depressions on the bacterial surface were observed” in assay [6] (1×MIC); “obvious wrinkles and shrinkage on the bacterial surface” in assay [6] (4×MIC). Moreover, the “membrane potential, DiBAC4 (3) fluorescence intensity” value in assay [7] is reported as “dose-dependent increase in fluorescence intensity”.
